Results on 23 molecules are retold here after BindingDB's records for doi:10.7270/Q2TX3CSC (Vanderbilt Screening Center for GPCRs, Ion Channels and …, 2009).

Non-standard residues stand in square brackets, D forms with d. Residues, ends and D or L forms follow the SMILES beside them. ξ: configuration not given here. *: point of attachment. ξF = NC(Cc1ccccc1)C(=O)O; Cbz = O=C(OCc1ccccc1)*

As usually defined, the EC50 is the concentration needed to bring the measured effect to its halfway point. Read a high EC50 as a less potent agent.

One experiment deals with T1, Solute carrier family 12 member 5 (Homo sapiens, UniProt Q9H2X9).
T1 sequence (Q9H2X9 whole entry): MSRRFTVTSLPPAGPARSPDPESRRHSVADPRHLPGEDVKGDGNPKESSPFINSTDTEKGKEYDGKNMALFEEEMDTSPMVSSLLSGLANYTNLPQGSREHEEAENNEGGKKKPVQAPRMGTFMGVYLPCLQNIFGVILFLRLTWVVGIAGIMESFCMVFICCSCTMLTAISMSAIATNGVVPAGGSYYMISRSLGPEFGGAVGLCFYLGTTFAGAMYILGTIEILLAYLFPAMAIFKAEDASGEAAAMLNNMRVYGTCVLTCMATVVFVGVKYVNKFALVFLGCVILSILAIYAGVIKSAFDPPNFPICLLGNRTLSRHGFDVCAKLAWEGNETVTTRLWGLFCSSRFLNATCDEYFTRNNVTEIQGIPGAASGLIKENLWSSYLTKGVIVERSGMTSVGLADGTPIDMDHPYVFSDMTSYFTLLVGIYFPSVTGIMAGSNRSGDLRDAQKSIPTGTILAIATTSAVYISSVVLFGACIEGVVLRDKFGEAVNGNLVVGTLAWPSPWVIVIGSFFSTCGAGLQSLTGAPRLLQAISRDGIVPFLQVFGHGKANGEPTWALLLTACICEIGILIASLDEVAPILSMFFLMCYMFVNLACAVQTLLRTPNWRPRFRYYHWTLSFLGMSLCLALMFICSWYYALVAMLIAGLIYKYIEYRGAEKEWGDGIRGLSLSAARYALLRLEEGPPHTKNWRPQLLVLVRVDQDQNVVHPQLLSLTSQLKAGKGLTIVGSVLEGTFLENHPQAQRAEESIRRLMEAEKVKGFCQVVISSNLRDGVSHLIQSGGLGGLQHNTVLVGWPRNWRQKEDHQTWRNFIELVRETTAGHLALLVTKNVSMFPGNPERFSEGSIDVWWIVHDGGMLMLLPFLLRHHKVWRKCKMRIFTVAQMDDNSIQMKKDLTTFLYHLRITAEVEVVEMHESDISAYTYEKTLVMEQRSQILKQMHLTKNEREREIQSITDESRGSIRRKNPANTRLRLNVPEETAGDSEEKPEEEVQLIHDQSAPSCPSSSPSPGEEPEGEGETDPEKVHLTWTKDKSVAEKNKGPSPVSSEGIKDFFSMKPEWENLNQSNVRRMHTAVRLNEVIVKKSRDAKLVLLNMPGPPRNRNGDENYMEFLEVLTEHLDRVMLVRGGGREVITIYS
Nature of the experiment: concentration-response of KCC2 transport modulators – cell-based, HEK293 KCC2, FluoZin-2 fluorescence, dose response (AID 1736).
Settings: not given
`CCOC(=O)CNC(=O)C(Cc1ccccc1)NC(=O)OCc1ccccc1` (stereo not drawn) [2-[[1-oxo-3-phenyl-2-(phenylmethoxycarbonylamino)propyl]amino]acetic acid ethyl ester] (Cbz-[ξF]-Gly-OEt): the response was half-maximal at 3.01 µM (EC50).

Molecule `CCOc1ccc(C(CC(=O)O)NC(=O)C(Sc2ccccc2)c2ccccc2)cc1` (stereo not drawn) [3-(4-ethoxyphenyl)-3-[(2-phenyl-2-phenylsulfanyl-ethanoyl)amino]propanoic acid] gave an EC50 of 4060 µM.

Take `CCOC(=O)c1cc2c(ccn2-c2ccc(F)cc2)n1CC(=O)NC(C)(C)C` [4-[2-(tert-butylamino)-2-keto-ethyl]-1-(4-fluorophenyl)pyrrolo[3,2-b]pyrrole-5-carboxylic acid ethyl ester]: the response was half-maximal at 51100 µM (EC50).

Turning to `CC1Cc2ccccc2N1C(=O)c1ccc(N2CCCC2)c([N+](=O)[O-])c1` (stereo not drawn) [(2-methyl-2,3-dihydroindol-1-yl)-(3-nitro-4-pyrrolidin-1-yl-phenyl)methanone], the midpoint of the response, the EC50, lay at 0.772 µM.

In turn, `Cc1ccc(OCCC(=O)OCC(=O)N2c3ccccc3CC2C)cc1` (stereo not drawn) [3-(4-methylphenoxy)propanoic acid [2-(2-methyl-2,3-dihydroindol-1-yl)-2-oxoethyl] ester] came in with an EC50 of 3.85 µM.

In turn, `CCOc1cc(Br)ccc1S(=O)(=O)NCc1ccccc1` [4-bromanyl-2-ethoxy-N-(phenylmethyl)benzenesulfonamide] had a 50% effective concentration (EC50) of 14.7 µM.

`O=[N+]([O-])c1cc(-n2c(O)c3c(c2O)CCCC3)ccc1NC1CCN(Cc2ccccc2)CC1` [2-[3-nitro-4-[[1-(phenylmethyl)-4-piperidinyl]amino]phenyl]-3a,4,5,6,7,7a-hexahydroisoindole-1,3-dione] registered a 50% effective concentration (EC50) of 221 µM.

`N#Cc1ccccc1NC(=O)CSc1nccn1CCc1ccccc1` [MLS000051858] displayed a half-maximal effective concentration (EC50) of 3.24 µM.

`CC12CC3(C)CC(C)(C1)CC(C(=O)NC(=S)N1CCCC1)(C2)C3` [3,5,7-trimethyl-N-pyrrolidin-1-ylcarbothioyl-adamantane-1-carboxamide] gave a concentration giving a half-maximal response (EC50) of 1.14 µM.

For the molecule `COC(=O)[C@@H](NC(=O)O[C@@H]1C(=O)c2ccc(OC)cc2O[C@H]1c1cccc(C(F)(F)F)c1)C(C)C` [(2S)-2-[[(2S,3S)-4-keto-7-methoxy-2-[3-(trifluoromethyl)phenyl]chroman-3-yl]oxycarbonylamino]-3-methyl-butyric acid methyl ester], the EC50 turned out to be 1.24 µM.

For `Cc1n[nH]c(O)c1C(c1ccc(-c2ccc(F)cc2)o1)c1c(C)n[nH]c1O` [4-[[5-(4-fluorophenyl)furan-2-yl]-(3-methyl-5-oxo-1,2-dihydropyrazol-4-yl)methyl]-5-methyl-1,2-dihydropyrazol-3-one], the half-maximal effective concentration (EC50) came to 8.39 µM.

Regarding `Cc1nc(SCc2ccc(F)cc2)c([N+](=O)[O-])[nH]1` [SMR000271028], the EC50 is 6.28 µM.

With `Cc1ccc2[nH]c3c(N4CCN(Cc5ccccc5)CC4)ncnc3c2c1` [8-methyl-4-[4-(phenylmethyl)-1-piperazinyl]-5H-pyrimido[5,4-b]indole], the EC50 worked out at 2.94 µM.

In the case of `CC(C)(C)NC(=O)C(c1cccs1)N(CC1CCCO1)C(=O)c1ccc(-c2ccccc2)[nH]1` (stereo not drawn) [N-[2-(tert-butylamino)-2-oxo-1-thiophen-2-ylethyl]-N-(2-oxolanylmethyl)-5-phenyl-1H-pyrrole-2-carboxamide], the half-maximal effective concentration (EC50) came to 0.449 µM.

`Sc1nnc(COc2ccc(Cl)cc2)o1` [5-(4-Chloro-phenoxymethyl)-3H-[1,3,4]oxadiazole-2-thione] came in with an EC50 of 9.34 µM.

For the molecule `CC(=NNC(=S)Nc1c(C)cccc1C)c1cc2ccccc2o1` [SMR000260555], it took 4.46 µM to reach a half-maximal effect (EC50).

Molecule `Cn1c(CSc2nc3ccccc3s2)nc2ccccc21` [2-(1-Methyl-1H-benzoimidazol-2-ylmethylsulfanyl)-benzothiazole] came in with an EC50 of 14.8 µM.

Staying with this experiment, now noted: inactive by the depositor's call.
In turn, `O=C(CCCn1ncn2c(cc3occc32)c1=O)N1CCc2ccccc2C1` [3-[4-(3,4-dihydro-1H-isoquinolin-2-yl)-4-keto-butyl]furo[3,4]pyrrolo[3,5-c][1,2,4]triazin-4-one] came in with an EC50 of 44.2 µM.

In the case of `CN(C)S(=O)(=O)c1ccc(NC(=O)CSc2ncnc3ccccc23)cc1` [MLS000394067], the EC50 amounted to 87700 µM.

Molecule `O=C(O)/C=C/c1cn(Cc2ccccc2)nc1-c1ccc(Cl)cc1` [(E)-3-[1-benzyl-3-(4-chlorophenyl)pyrazol-4-yl]acrylic acid] yielded an EC50 of 26.3 µM.

In turn, `COc1cc(-c2nnc(CSc3nnc(Nc4ccc(C(C)C)cc4)s3)o2)cc(OC)c1OC` [MLS000391281] returned a half-maximal effective concentration (EC50) of 2.2 µM.

Take `CCCn1c(NC(=S)Nc2ccccc2)nc2ccccc21` [1-phenyl-3-(1-propyl-2-benzimidazolyl)thiourea]: the half-maximal effective concentration (EC50) was 60400 µM.

Take `Cc1nc2c(-c3ccc(Cl)cc3)c(C)[nH]n2c(=O)c1Cc1ccccc1` [6-benzyl-3-(4-chlorophenyl)-2,5-dimethylpyrazolo[1,5-a]pyrimidin-7(4H)-one]: the response was half-maximal at 43.9 µM (EC50).
